The text below walks through data of paper PMC4494927, “Discovery of a small molecule targeting SET-PP2A interaction to overcome BCR-ABLT315I mutation of chronic myeloid leukemia” (Oncotarget, 2015).

Series [1] has as its target T1, recombinant human SET protein (Homo sapiens, UniProt Q01105).
T1 construct: Genes encoding the full length of human SET (GenBank No.: AAA60318.1) was synthesized; made in house; host or cells: E. coli (pET-21a)
The series can be described thus: Microscale thermophoresis (MST) binding to NT647-labeled SET. Conditions: 15 μM NT647-labeled SET, PBS pH 8.0, 25 °C. The procedure:
Thermophoresis analysis was performed during 30 s on a NanoTemper Monolith NT.115 instrument (20% LED, 40% MST power) at 25 °C.

Series [2] relates to BaF3-p210^T315I cells. Nature of the series: Survival study, intravenously injected tumor cells. It counts as in vivo, BALB/c mice. Particulars: vehicle 25.5 days. The method, then:
In survival study, BaF3-p210^T315I cells were injected into the tail vein of BALB/c mice (100 μL of a 1 × 10^7 cells suspension in serum free medium). […] Moribund animals were sacrificed as per institutional and national guidelines. Survival data were analyzed by the Kaplan Meier method and compared using the log-rank test.

Series [3] has as its system BCR-ABL. Nature of the series: Western blot of BCR-ABL expression in K562 cells. In kind it is cell-based, human. The method, then:
Protein samples (40 μg) were resolved on SDS-PAGE gels, transferred onto PVDF membranes (Millipore) and incubated overnight with primary antibodies to β-tubulin, BCR-ABL, p-BCR-ABL, SET, PP2Ac and p-PP2Ac. The membranes were incubated with horseradish peroxidase (HRP)-conjugated secondary antibody for 1 h, and the bands were visualized using an ECL detection kit following the manufacturer's instructions. For immunoprecipitation, cells were lysed in 20 mM Tris-HCl (pH 7.0), 150 mM NaCl, 1 mM EDTA, 1 mM MgCl and 0.5% NP-40 supplemented with a cocktail of protease and phosphatase inhibitors (Roche). Lysates (200 μg) were incubated with primary antibodies (1 μg) against SET or PP2Ac at 4 °C for 10 h, protein A/G plus agarose beads were then added for immunoprecipitation overnight at 4 °C. After wash, the immunoprecipitated proteins were separated by SDS-PAGE and analyzed by Western blotting.

The subject of series [4] is PP2A. Nature of the series: PP2Ac immunoprecipitation phosphatase assay in K562 cells. It counts as cell-based, human. The procedure:
PP2A assay from whole cell lysates was carried out using commercial PP2Ac immunoprecipitation phosphatase assay kit (Millipore). Briefly, 200 μg protein lysates prepared as described above, 4 μg PP2Ac-specific antibody, and 40 μL protein A-agarose were added to TBS buffer (20 mM Tris-HCl, 150 mM NaCl, and 0.1% Tween 20) to a final volume of 500 μL and immunoprecipitation was carried out at 4 °C for 2 h. The immunoprecipitates were used in the phosphatase reaction following the manufacturer's protocol.

For series [5], the system named is K562 cells. The series can be described thus: Cytotoxicity assay (CellTiter-Glo). In kind it is cell-based, human. The procedure:
Twenty types of tumor cell lines were seeded at 4000 cells per well in 96-well plates. […] Cell viability was measured with the CellTiter-Glo Luminescent Cell Viability Assay (Promega) according to the manufacturer's instructions. Luminescence was measured using an EnVision Multilabel Plate Reader (Perkin-Elmer). The cytotoxicity of TGI1002 was expressed as the percentage of luminescence relative to that of untreated cells.

For series [6], the system named is BaF3-p210^T315I tumor xenografts. The series can be described thus: In vivo anti-tumor efficacy, subcutaneous xenograft. More on the design: species or system BALB/c mice. Conditions: TGI1002 30, 45, 60 mg/kg; imatinib, ponatinib 10 mg/kg; i.p. daily. The procedure:
BABL/c male mice from SLRC Experimental Animal Center were bred under pathogen-free conditions and were used for experiments at 6-8 weeks of age. Animal experiments were performed according to institutional and national guidelines. BaF3-p210^T315I cells were implanted subcutaneously into the right flank of nude mice (200 μL of a 1 × 10^7cells suspension in serum free medium). When tumors became large enough for caliper measurement, tumor volumes were calculated as (length × width^2) × 0.5. […] At the end of the experiments, tumors were dissected and photographed, and wet weights of each tumor were measured.

For series [7], the target named is T2, recombinant human SET protein in full length (human, UniProt Q01105-2 1-277, labeled with RED fluorescent dye NT-647-NHS).
T2 construct: human SET, full length, gene synthesized after GenBank AAA60318.1 and subcloned into pET-21a; also called SET oncoprotein; NT647-labeled SET protein
The series can be described thus: MST; serial dilutions of the peptide (up to 2 mM) mixed with 15 μM NT647-labeled SET protein, 10 min at room temperature, 20 mM PBS pH 8.0, 25 °C, Monolith NT.115 (20% LED, 40% MST power). Conditions: both partners purified.

T2 sequence (Q01105 other isoform, or with tags, fused parts or gaps): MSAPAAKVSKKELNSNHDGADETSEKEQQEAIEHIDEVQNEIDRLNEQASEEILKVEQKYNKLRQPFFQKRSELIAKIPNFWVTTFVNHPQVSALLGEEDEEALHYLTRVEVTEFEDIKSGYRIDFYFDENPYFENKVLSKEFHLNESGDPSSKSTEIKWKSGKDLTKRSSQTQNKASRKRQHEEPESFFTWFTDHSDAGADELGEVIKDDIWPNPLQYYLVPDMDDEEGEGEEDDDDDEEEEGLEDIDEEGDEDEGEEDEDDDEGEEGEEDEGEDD
T1 sequence (Q01105 1-277 isoform Q01105-2): as the sequence (Q01105 other isoform, or with tags, fused parts or gaps) above

Take `Cc1ccc(NC(=O)c2ccc(CN3CCN(C)CC3)cc2)cc1Nc1nccc(-c2cccnc2)n1` [imatinib, reference compound]: the Kd value entry in series [1] is recorded as “did not bind SET to give a meaningful Kd value”. The median survival in series [2] (10 mg/kg i.p. once daily from day 5) is on record as 25 days.

Take `CO[C@H]1/C=C\C=C(/C)C(=O)NC2=CC(=O)C(NCCN(C)C)=C(C[C@@H](C)C[C@H](OC)[C@H](O)[C@@H](C)/C=C(\C)[C@@H]1OC(N)=O)C2=O` [17-DMAG, reference compound]: the “expression level of BCR-ABL” value in series [3] is given as “significantly degraded”.

`C=C1[C@@H](O)[C@@H]2O[C@]3(CC[C@H](/C=C/[C@@H](C)[C@@H]4CC(C)=C[C@@]5(O[C@H](C[C@@](C)(O)C(=O)O)CC[C@H]5O)O4)O3)CC[C@H]2O[C@@H]1[C@@H](O)C[C@H](C)[C@H]1O[C@@]2(CCCCO2)CC[C@H]1C` [okadaic acid, reference compound]: the “PP2A activity compared to control” value in series [4] was “decreased significantly”.

Consider `Cc1ccc(NC(=O)c2cccc(CN3CCN(CC(=O)O)CC3)c2)cc1Oc1nccc(-c2cccnc2)n1` [TGI1002-COOH], for which the “cytotoxicity compared to the parent compound TGI1002” value in series [5] is recorded as “comparable cytotoxicity”.

`Cc1ccc(C(=O)Nc2ccc(CN3CCN(C)CC3)c(C(F)(F)F)c2)cc1C#Cc1cnc2cccnn12` [ponatinib, reference compound] displayed a median survival in series [2] of 37 days. Moreover, the “final tumor volume and weight compared to vehicle group” value in series [6] is “markedly lower”.

B1: ApoE-mimetic peptide COG112 (peptide)
peptide: Ac-LRVRLASHLRKLRKRLL-NH2
notes: source: synthetic peptide (ChinaPeptides Co., Ltd, > 95% purity)
Take B1: in series [7], the dissociation constant (Kd) was determined as 4.4 ± 0.39 µM.
